Where two headings read alike, the source gives them in different places.

From patent publication US20220251109A1, “OXAAZAQUINAZOLINE-7(8H)-KETONE COMPOUND, PREPARATION METHOD THEREFOR AND PHARMACEUTICAL APPLICATION THEREOF” (GENFLEET THERAPEUTICS (SHANGHAI) INC., priority 2019, published 2022) come the findings set out here.

Assay type in all cases: cell-based, human
Assay [1] deals with NCI-H358 cells (Kras G12C mutation). The assay is described as follows: Cell proliferation inhibition experiment, 3D model, CellTiter-Glo (NCI-H358). The conditions noted are these: NCI-H358, 3D sphere plate, 5 days, 2% FBS. An outline of the steps:
(§1)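 NCI-H358 (800 cells/well) and A549 (400 cells/well) were grown as overnight 3D spheroids in 2% FBS medium, then exposed 5 days to 3.16-fold compound dilutions (0.1% DMSO). Viability was read by CellTiter-Glo luminescence; IC50 came from a four-parameter fit of inhibition normalised to DMSO and medium blanks.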

Assay [2] concerns p-ERK in MIA PaCa2 cells (Kras G12C mutation). The assay is described as follows: Cell p-ERK detection experiment (HTRF) in MIA PaCa2 cells. To be noted: compound 2 hours. On the procedure:
MIA PaCa2 was a human pancreatic cancer cell line with Kras G12C mutation, cultured in 10% FBS+2.5% Horse serum DMEM medium. The cells in the logarithmic growth phase were taken, digested with enzyme EDTA, collected, counted and 2.5E4 cells were seeded in a 96-well cell culture plate, cultured overnight. DMSO was used to prepare 1000× compound 3.16-fold gradient concentration stock solution, and medium was used to dilute 200-fold to 5× compound stock solution. On the second day after cell seeding, 5× compound stock solution was added to each cell culture well, the final concentration was 1×, and DMSO content was 0.1%. DMSO was used as an experimental control (control). After the compound was added and cultured for two hours, the remaining medium was removed. 50 ul cell lysis buffer was added to each well, mixed and incubated for 30 minutes, then 16 ul of the mixture was transferred to a 96-well plate with a non-transparent white bottom, and 16 ul cell lysis buffer was added to blank wells. After the completion of the transfer, 4 ul p-ERK HTRF antibody mixture was added to each well, incubated for 4 hours and the fluorescence value was read. The compound inhibition rate IR (%)=(RLU control-RLU compound)/(RLU control-RLU blank)×100% was calculated, Prism 8 four-parameter method was used to fit the compound's gradient dilution concentration and the corresponding cell proliferation inhibition rate, and the IC50 value was calculate.
In general terms: TR-FRET usually uses a lanthanide donor and a delayed reading to cut background.

Assay [3] concerns A549 cells (Kras G12S mutation). Nature of the assay: Cell proliferation inhibition experiment, 3D model, CellTiter-Glo (A549). To be noted: A549, 3D sphere plate, 5 days, 2% FBS. A digest of the protocol:
as §1
Background: In ATP-based viability assays light output follows the ATP content of the culture.

Assay [4] concerns MIA PaCa-2 cells (Kras G12C mutation). The assay is described as follows: Cell proliferation inhibition experiment, 3D model, CellTiter-Glo (MIA PaCa-2). The conditions noted are these: MIA PaCa-2, 3D sphere plate, 5 days, read-out: MIA-PaCa2 IC50. A digest of the protocol:
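3D spheroid model: 200 MIA PaCa-2 cells per well cultured overnight, then treated with a 3.16-fold compound dilution series (0.1% DMSO) for 5 days. Viability read by CellTiter-Glo luminescence. Inhibition rate normalised to DMSO and medium-blank controls; IC50 from four-parameter fit.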

Setting [5] is: Homo sapiens, MIA PaCa-2, 120 h.

The term IC50 denotes the point on the concentration scale where inhibition reaches its midpoint. `C=CC(=O)N1CCN2c3nc(=O)n(-c4c(C)ccnc4C4CC4)c4nc(-c5c(O)cccc5F)c(F)c(c34)OC[C@H]2C1` (single isomer, unassigned) [Compound Z112-1]: the half-inhibitory concentration (IC50) in assay [1] is 3 nM; in assay [2], 24 nM; in assay [3] (Homo sapiens, A549, 120 h), more than 30 µM; in assay [4], 4 nM.
Regarding `C=CC(=O)N1CCN2c3nc(=O)n(-c4c(C)ccnc4C4CC4)c4nc(-c5c(O)cccc5F)c(F)c(c34)OC[C@H]2C1` (single isomer, unassigned) [Compound Z112-2], the half-maximal inhibitory concentration (IC50) is 94 nM in assay [1], 502 nM in assay [2], more than 30 µM in assay [3] and 126 nM in assay [4].
In the case of `C=CC(=O)N1CCN2c3nc(=O)n(-c4c(C)ccnc4C(C)C)c4nc(-c5ccc(F)cc5F)c(Cl)c(c34)OC[C@@H]2C1` [Compound Z49], the concentration for half-maximal inhibition (IC50) is 12 nM in assay [1]; 128 nM in assay [2] (Homo sapiens, MIA PaCa-2, 2 h); more than 10 µM in assay [3] (Homo sapiens, A549, 120 h); 22 nM in assay [4].
As for `C=CC(=O)N1CCN2c3nc(=O)n(-c4c(C)ccnc4C(C)C)c4nc(-c5c(O)ccc(F)c5F)c(Cl)c(c34)OC[C@@H]2C1` [Compound Z53], the IC50 in assay [1] (Homo sapiens, NCI-H358, 120 h) is 4 nM; in assay [2] (Homo sapiens, MIA PaCa-2, 2 h) it was 48 nM; in assay [3] (Homo sapiens, A549, 120 h) it was more than 10 µM; in assay [4] (setting [5]), 10 nM.
For `C=CC(=O)N1CCN2c3nc(=O)n(-c4c(C)ccnc4C(C)C)c4nc(-c5ccccc5Cl)c(Cl)c(c34)OC[C@@H]2C1` [Compound Z58], in that order: 1 nM, 14 nM, more than 10 µM and 3 nM.
In the same order, the values of `C=CC(=O)N1CCN2c3nc(=O)n(-c4c(C)ccnc4C(C)C)c4nc(-c5cc(F)ccc5F)c(Cl)c(c34)OC[C@@H]2C1` [Compound Z60] are 7 nM, 47 nM, more than 10 µM and 19 nM.
With `C=CC(=O)N1CCN2c3nc(=O)n(-c4c(C)ccnc4C(C)C)c4nc(-c5cccc(Cl)c5F)c(Cl)c(c34)OC[C@@H]2C1` [Compound Z61], the concentration for half-maximal inhibition (IC50) in assay [1] (Homo sapiens, NCI-H358, 120 h) was 1 nM; in assay [2] (Homo sapiens, MIA PaCa-2, 2 h) it was 50 nM; in assay [3] (Homo sapiens, A549, 120 h), more than 10 µM; in assay [4] (setting [5]), 8 nM.
For `C=CC(=O)N1CCN2c3nc(=O)n(-c4c(C)ccnc4C(C)C)c4nc(-c5ccc(Cl)cc5F)c(Cl)c(c34)OC[C@@H]2C1` [Compound Z65], in that order: 9 nM, 182 nM, more than 10 µM and 34 nM.
Regarding `C=CC(=O)N1CCN2c3nc(=O)n(-c4c(C)ccnc4C(C)C)c4nc(-c5ccccc5C(F)(F)F)c(Cl)c(c34)OC[C@@H]2C1` [Compound Z66], the 50% inhibitory concentration (IC50) in assay [1] (Homo sapiens, NCI-H358, 120 h) was 3 nM; in assay [2] (Homo sapiens, MIA PaCa-2, 2 h) it was 39 nM; in assay [3] (Homo sapiens, A549, 120 h) it was more than 10 µM; in assay [4] (setting [5]) it was 7 nM.
In the same order, the values of `C=CC(=O)N1CCN2c3nc(=O)n(-c4c(C)ccnc4C(C)C)c4nc(-c5c(F)cccc5Cl)c(Cl)c(c34)OC[C@@H]2C1` [Compound Z67] are 3 nM, 21 nM, more than 10 µM and 6 nM.
With `C=CC(=O)N1CCN2c3nc(=O)n(-c4c(C)ccnc4C(C)C)c4nc(-c5c(O)cccc5F)c(F)c(c34)OC[C@H]2C1` [Compound Z73], the concentration for half-maximal inhibition (IC50) in assay [1] was 2 nM; in assay [2] it was 22 nM; in assay [3] (Homo sapiens, A549, 120 h), more than 10 µM; in assay [4] (setting [5]), 3 nM.
`C=CC(=O)N1CCN2c3nc(=O)n(-c4c(C)ccnc4C(C)C)c4nc(-c5ccccc5Cl)c(F)c(c34)OC[C@H]2C1` [Compound Z79]: the 50% inhibitory concentration (IC50) in assay [1] (Homo sapiens, NCI-H358, 120 h) was 4 nM; in assay [2] (Homo sapiens, MIA PaCa-2, 2 h) it was 45 nM; in assay [3] (Homo sapiens, A549, 120 h), more than 10 µM; in assay [4] (setting [5]) it was 6 nM.
For `C=CC(=O)N1CCN2c3nc(=O)n(-c4c(C)ccnc4C(C)C)c4nc(-c5ccccc5F)c(F)c(c34)OC[C@@H]2C1` [Compound Z84], in that order: 13 nM, 105 nM, more than 10 µM and 22 nM.
For the compound `C=CC(=O)N1CCN2c3nc(=O)n(-c4c(C)ccnc4C(C)C)c4nc(-c5c(O)cccc5F)c(F)c(c34)OC[C@@H]2C1` [Compound Z85], the IC50 turned out to be 3 nM in assay [1] (Homo sapiens, NCI-H358, 120 h); 54 nM in assay [2] (Homo sapiens, MIA PaCa-2, 2 h); 18.7 µM in assay [3] (Homo sapiens, A549, 120 h); 6 nM in assay [4] (setting [5]).
For the compound `C=CC(=O)N1CCN2c3nc(=O)n(-c4c(C)ccnc4C(C)C)c4nc(-c5c(C)ccc6[nH]ncc56)c(Cl)c(c34)OC[C@H]2C1` [Compound Z86], the IC50 was 13 nM in assay [1] (Homo sapiens, NCI-H358, 120 h); 101 nM in assay [2] (Homo sapiens, MIA PaCa-2, 2 h); more than 10 µM in assay [3] (Homo sapiens, A549, 120 h); 24 nM in assay [4] (setting [5]).
In the same order, the values of `C=CC(=O)N1CCN2c3nc(=O)n(-c4c(C(C)C)ccnc4C)c4nc(-c5c(O)cccc5F)c(F)c(c34)OC[C@H]2C1` [Compound Z92] are 3 nM, 25 nM, more than 10 µM and 2 nM.
In the same order, the values of `C=CC(=O)N1CCN2c3nc(=O)n(-c4c(C5CC5)ncnc4C4CC4)c4nc(-c5ccccc5F)c(Cl)c(c34)OC[C@H]2C1` [Compound Z93] are 1 nM, 9 nM, 12.8 µM and 2 nM.
For `C=CC(=O)N1CCN2c3nc(=O)n(-c4c(C5CC5)ncnc4C4CC4)c4nc(-c5c(O)cccc5F)c(Cl)c(c34)OC[C@H]2C1` [Compound Z94], in that order: 2 nM, 7 nM, more than 10 µM and 2 nM.
Regarding `C=CC(=O)N1CCN2c3nc(=O)n(-c4c(C(C)C)ncnc4C(C)C)c4nc(-c5c(O)cccc5F)c(Cl)c(c34)OC[C@H]2C1` [Compound Z97], the half-maximal inhibitory concentration (IC50) in assay [1] (Homo sapiens, NCI-H358, 120 h) was determined as 1 nM; in assay [2] (Homo sapiens, MIA PaCa-2, 2 h), 7 nM; in assay [3] (Homo sapiens, A549, 120 h), 26.8 µM; in assay [4] (setting [5]), 1 nM.
As for `C=CC(=O)N1CCN2c3nc(=O)n(-c4c(C5CC5)ncnc4C4CC4)c4nc(-c5c(O)cccc5F)c(F)c(c34)OC[C@H]2C1` [Compound Z99], the IC50 in assay [1] (Homo sapiens, NCI-H358, 120 h) is 2 nM; in assay [2] (Homo sapiens, MIA PaCa-2, 2 h) it was 12 nM; in assay [3] (Homo sapiens, A549, 120 h), more than 10 µM; in assay [4] (setting [5]), 3 nM.
Turning to `C=CC(=O)N1CCN2c3nc(=O)n(-c4nccnc4C(C)C)c4nc(-c5ccccc5F)c(Cl)c(c34)OC[C@H]2C1` [Compound Z104-1], the IC50 was 8 nM in assay [1]; 14 nM in assay [2]; 11.3 µM in assay [3] (Homo sapiens, A549, 120 h); 12 nM in assay [4] (setting [5]).
`C=CC(=O)N1CCN2c3nc(=O)n(-c4nccnc4C(C)C)c4nc(-c5c(O)cccc5F)c(Cl)c(c34)OC[C@H]2C1` [Compound Z105-2]: the IC50 in assay [1] was 5 nM; in assay [2], 20 nM; in assay [3], more than 30 µM; in assay [4] (setting [5]), 11 nM.
In the case of `C=CC(=O)N1CCN2c3nc(=O)n(-c4nccnc4C(C)C)c4nc(-c5c(O)cccc5F)c(F)c(c34)OC[C@H]2C1` [Compound Z107-2], the IC50 in assay [1] was 7 nM; in assay [2], 35 nM; in assay [3], more than 30 µM; in assay [4] (setting [5]), 19 nM.
On to `C=CC(=O)N1CCN2c3nc(=O)n(-c4c(C)ncnc4C4CC4)c4nc(-c5c(O)cccc5F)c(F)c(c34)OC[C@H]2C1` [Compound Z108], for which the IC50 is 9 nM in assay [1] (Homo sapiens, NCI-H358, 120 h); 49 nM in assay [2] (Homo sapiens, MIA PaCa-2, 2 h); more than 30 µM in assay [3] (Homo sapiens, A549, 120 h); 17 nM in assay [4] (setting [5]).
With `C=CC(=O)N1CCN2c3nc(=O)n(-c4c(OC)ncnc4C(C)C)c4nc(-c5ccccc5F)c(Cl)c(c34)OC[C@H]2C1` [Compound Z110], the 50% inhibitory concentration (IC50) amounted to 4 nM in assay [1] (Homo sapiens, NCI-H358, 120 h); 43 nM in assay [2] (Homo sapiens, MIA PaCa-2, 2 h); 14.7 µM in assay [3] (Homo sapiens, A549, 120 h); 11 nM in assay [4] (setting [5]).
With `C=CC(=O)N1CCN2c3nc(=O)n(-c4c(OC)ncnc4C(C)C)c4nc(-c5c(O)cccc5F)c(F)c(c34)OC[C@H]2C1` [Compound Z111], the half-inhibitory concentration (IC50) in assay [1] (Homo sapiens, NCI-H358, 120 h) is 4 nM; in assay [2] (Homo sapiens, MIA PaCa-2, 2 h) it was 47 nM; in assay [3] (Homo sapiens, A549, 120 h) it was more than 30 µM; in assay [4] (setting [5]), 7 nM.
For `C=CC(=O)N1CCN2c3nc(=O)n(-c4c(Cl)cncc4C(C)C)c4nc(-c5ccccc5F)c(Cl)c(c34)OC[C@H]2C1` [Compound Z114], in that order: 8 nM, 39 nM, 4.63 µM and 74 nM.
